Test results published in ChEMBL document CHEMBL3872220, “Amphiphilic xanthones as a potent chemical entity of anti-mycobacterial agents with membrane-targeting properties” (Eur J Med Chem, 2016).
≈ marks a conversion by molar mass, not a printed value.

Assays:
[1] = tested on: Mycolicibacterium smegmatis; test: Antimycobacterial activity against Mycobacterium smegmatis MC2 155 after 24 hrs by broth dilution assay; type: functional; settings: str. MC2 155, 24 h
[2] = Hemolytic activity against New Zealand white rabbit RBC assessed as hemoglobin release measured after 1 hr; type: ADME, cell-based, Oryctolagus cuniculus, Erythrocyte; settings: red blood cells
[3] = tested on: Mycolicibacterium smegmatis; test: Antimycobacterial activity against Mycobacterium smegmatis MC2 155 assessed as inhibition of respiratory ATP synthesis by measuring ATP level at 800 ug/ml measured after 1 hr by luciferase reporter gene assay (reference value: 90.6%); type: functional, str. MC2 155; set-up: scale not given: the % may be the effect or the level left
[4] = tested on: Mycolicibacterium smegmatis; test: Antimycobacterial activity against Mycobacterium smegmatis MC2 155 assessed as inhibition of respiratory ATP synthesis by measuring ATP level at 800 ug/ml measured after 9 hrs by luciferase […] assay (reference value: 212.7%); type: functional, str. MC2 155; set-up: scale not given: the % may be the effect or the level left
[5] = tested on: Mycolicibacterium smegmatis; test: Antimycobacterial activity against Mycobacterium smegmatis MC2 155 assessed as inhibition of respiratory ATP synthesis by measuring ATP level at 800 ug/ml measured after 6 hrs by luciferase reporter gene assay (reference value: 152%); type: functional, str. MC2 155; set-up: scale not given: the % may be the effect or the level left
[6] = tested on: Mycolicibacterium smegmatis; test: Antimycobacterial activity against Mycobacterium smegmatis MC2 155 assessed as inhibition of respiratory ATP synthesis by measuring ATP level at 800 ug/ml measured after 3 hrs by luciferase reporter gene assay (reference value: 158.3%); type: functional, str. MC2 155; set-up: scale not given: the % may be the effect or the level left
CYP3A4 = CYP3A4 (Homo sapiens, UniProt P08684); test: Inhibition of CYP3A4 in human liver microsomes at 10 uM using midazolam as substrate preincubated for 5 min followed by NADPH addition measured after 10 mins by LC-MS/MS method relative to control; type: ADME; settings: probe midazolam
Chain of CYP3A4 (P08684 whole entry): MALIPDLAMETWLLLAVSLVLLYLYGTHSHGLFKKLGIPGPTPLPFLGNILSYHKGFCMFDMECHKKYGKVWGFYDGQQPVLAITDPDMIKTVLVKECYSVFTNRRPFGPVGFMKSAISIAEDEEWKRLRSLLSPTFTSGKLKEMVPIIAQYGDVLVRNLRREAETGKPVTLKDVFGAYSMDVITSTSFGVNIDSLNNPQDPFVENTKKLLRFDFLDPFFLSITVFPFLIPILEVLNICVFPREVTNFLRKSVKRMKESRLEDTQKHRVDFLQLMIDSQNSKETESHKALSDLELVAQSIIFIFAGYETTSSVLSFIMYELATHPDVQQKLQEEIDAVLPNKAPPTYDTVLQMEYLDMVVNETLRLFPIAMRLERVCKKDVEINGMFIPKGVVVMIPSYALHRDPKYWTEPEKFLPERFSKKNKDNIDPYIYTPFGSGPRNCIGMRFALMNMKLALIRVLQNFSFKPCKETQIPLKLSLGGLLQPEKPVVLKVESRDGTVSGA

[7] = Cytotoxicity against human corneal fibroblasts assessed as reduction in ATP level measured after 4 hrs by Celltiter-Glo luminescent assay; type: toxicity, Corneal fibroblast
CYP2C19 = CYP2C19 (Homo sapiens, UniProt P33261); test: Inhibition of CYP2C19 in human liver microsomes at 10 uM using omeprazole as substrate preincubated for 5 min followed by NADPH addition measured after 10 mins by LC-MS/MS method relative to control; type: ADME; settings: probe omeprazole
Chain of CYP2C19 (P33261 whole entry): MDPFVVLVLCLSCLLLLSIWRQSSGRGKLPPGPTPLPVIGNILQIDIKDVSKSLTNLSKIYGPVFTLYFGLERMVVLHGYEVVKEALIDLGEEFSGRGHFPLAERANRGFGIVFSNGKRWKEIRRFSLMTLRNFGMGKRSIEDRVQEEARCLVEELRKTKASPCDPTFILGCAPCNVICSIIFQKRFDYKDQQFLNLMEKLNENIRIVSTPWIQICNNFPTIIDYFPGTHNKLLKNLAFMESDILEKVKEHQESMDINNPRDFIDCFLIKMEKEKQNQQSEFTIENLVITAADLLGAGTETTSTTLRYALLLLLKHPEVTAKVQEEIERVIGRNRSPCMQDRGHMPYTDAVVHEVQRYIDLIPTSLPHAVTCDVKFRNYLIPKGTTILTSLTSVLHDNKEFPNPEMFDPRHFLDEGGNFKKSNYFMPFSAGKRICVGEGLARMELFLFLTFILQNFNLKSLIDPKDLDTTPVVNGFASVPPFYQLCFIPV

[8] = Drug metabolism in rat liver microsomes at 1 uM preincubated for 5 mins followed by NADPH addition measured up to 30 mins by LC-MS/MS method; type: ADME; settings: read-out: Drug metabolism
CYP2D6 = CYP2D6 (Homo sapiens, UniProt P10635); test: Inhibition of CYP2D6 in human liver microsomes at 10 uM using bufuralol as substrate preincubated for 5 min followed by NADPH addition measured after 10 mins by LC-MS/MS method relative to control; type: ADME; settings: probe bufuralol
Chain of CYP2D6 (P10635 whole entry): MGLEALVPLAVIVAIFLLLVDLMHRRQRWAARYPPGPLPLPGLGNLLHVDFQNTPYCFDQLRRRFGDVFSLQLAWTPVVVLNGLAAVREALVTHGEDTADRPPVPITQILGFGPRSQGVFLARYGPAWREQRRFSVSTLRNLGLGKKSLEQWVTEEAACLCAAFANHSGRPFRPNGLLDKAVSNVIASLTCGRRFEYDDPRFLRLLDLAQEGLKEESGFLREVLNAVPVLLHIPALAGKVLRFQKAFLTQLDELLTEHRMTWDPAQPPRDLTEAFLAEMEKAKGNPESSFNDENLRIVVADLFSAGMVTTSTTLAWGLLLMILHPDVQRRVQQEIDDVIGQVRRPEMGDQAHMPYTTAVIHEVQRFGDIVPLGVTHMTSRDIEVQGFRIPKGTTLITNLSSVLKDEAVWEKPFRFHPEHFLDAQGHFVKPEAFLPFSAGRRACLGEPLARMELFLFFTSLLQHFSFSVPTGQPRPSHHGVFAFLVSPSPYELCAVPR

[9] = Cytotoxicity against human corneal fibroblasts assessed as increase in LDH level measured after 4 hrs by Cytotox-one […] assay; type: toxicity, Corneal fibroblast
[10] = Half life in rat liver microsomes at 1 uM preincubated for 5 mins followed by NADPH addition measured by LC-MS/MS method; type: ADME
Staphylococcus aureus [11] = test: Antibacterial activity against methicillin-resistant Staphylococcus aureus isolate DM21455; type: functional
Staphylococcus aureus [12] = test: Antibacterial activity against Staphylococcus aureus isolate DM4001; type: functional
[13] = Selectivity index, ratio of CC50 for human corneal fibroblasts assessed as reduction in ATP level to MIC90 for Mycobacterium smegmatis MC2 155
[14] = Selectivity index, ratio of CC50 for human corneal fibroblasts assessed as reduction in ATP level to MIC90 for Mycobacterium bovis BCG ATCC 35734

Compound	MIC90 [1] [µM]	HC50 at 1 h [2] [µM]	inhibition at 10 min, 10 µM (CYP3A4) [%]	CC50 at 4 h [7] [µM]	inhibition at 10 min, 10 µM (CYP2C19) [%]	metabolised at 0.5 h, 1 µM [8] [%]	inhibition at 10 min, 10 µM (CYP2D6) [%]	CC50 at 4 h [9] [µM]	half-life at 1 µM [10] [min]	other results
CCN(CC)CC(O)COc1cc2oc3cc(OCC(O)CN(CC)CC)c(OC)c(CC=C(C)C)c3c(=O)c2c(O)c1CC=C(C)C (stereo not drawn)	6.4 (≈ 4.28 µg/mL)	108								
C(=NC1CCCCC1)=NC1CCCCC1 [DICYCLOHEXYLCARBODIIMIDE]										Activity [3]: 7%; Activity [4]: 13.3%; Activity [5]: 11.1%; Activity [6]: 6.7%
O=C(CC(=O)C(F)(F)F)c1cccs1										Activity [3]: 36.8%; Activity [4]: 26.3%; Activity [5]: 17.4%; Activity [6]: 25.8%
CCN(CC)CCCCOc1cc2oc3cc(OCCCCN(CC)CC)c(OC)c(CC=C(C)C)c3c(=O)c2c(OCCCCN(CC)CC)c1CC=C(C)C	> 30	> 252	40	43.7	10	11.6	30	> 150	> 30	
COc1c(OCC(O)CNC(CO)(CO)CO)cc2oc3cc(OCC(O)CNC(CO)(CO)CO)c(CC=C(C)C)c(O)c3c(=O)c2c1CC=C(C)C (stereo not drawn)	26 (≈ 19.9 µg/mL)	33.2								
COc1c(OCCCCN2CCSCC2)cc2oc3cc(OCCCCN4CCSCC4)c(CC=C(C)C)c(O)c3c(=O)c2c1CC=C(C)C	> 30	> 276								
COC(=O)C(CCCNC(=N)N)NC(=O)COc1cc2oc3cc(OCC(=O)NC(CCCNC(=N)N)C(=O)OC)c(OC)c(CC=C(C)C)c3c(=O)c2c(O)c1CC=C(C)C (stereo not drawn)	> 30	309	36	13.7	1	12.6	11	13.4	> 30	MIC (Staphylococcus aureus [11]): 2.5 µM (≈ 2.17 µg/mL); MIC (Staphylococcus aureus [12]): 3.5 µM (≈ 3.03 µg/mL)
CCN(CC)CCOc1cc2oc3cc(OCCN(CC)CC)c(OC)c(CC=C(C)C)c3c(=O)c2c(O)c1CC=C(C)C	3.2 (≈ 1.95 µg/mL)	> 328	20	44.1	16	82.8	28	92.6	12	
CCN(CC)CCCOc1cc2oc3cc(OCCCN(CC)CC)c(OC)c(CC=C(C)C)c3c(=O)c2c(O)c1CC=C(C)C	3.2 (≈ 2.04 µg/mL)									
COc1c(OCCCCN2CCOCC2)cc2oc3cc(OCCCCN4CCOCC4)c(CC=C(C)C)c(OCCCCN4CCOCC4)c3c(=O)c2c1CC=C(C)C	> 30	> 240								
COC(=O)C(Cc1cnc[nH]1)NC(=O)COc1cc2oc3cc(OCC(=O)NC(Cc4cnc[nH]4)C(=O)OC)c(OC)c(CC=C(C)C)c3c(=O)c2c(O)c1CC=C(C)C (stereo not drawn)	> 30	> 241								
COc1c(OCC(O)CNCCNC(=N)N)cc2oc3cc(OCC(O)CNCCNC(=N)N)c(CC=C(C)C)c(O)c3c(=O)c2c1CC=C(C)C (stereo not drawn)	> 30	141								MIC (Staphylococcus aureus [11]): 5 µM (≈ 3.63 µg/mL); MIC (Staphylococcus aureus [12]): 5 µM (≈ 3.63 µg/mL)
CCN(CC)CCCCCCCOc1cc2oc3cc(OCCCCCCCN(CC)CC)c(OC)c(CC=C(C)C)c3c(=O)c2c(O)c1CC=C(C)C	6.4 (≈ 4.79 µg/mL)	86	3	95.1	16	13.9	6	> 150	> 30	Selectivity Index [13]: 15 - 40; Selectivity Index [14]: 15 - 40
